We go through 7 compounds from patent US7786171B2, “Amide derivatives as positive allosteric modulators and methods of use thereof” (Abbott Laboratories, priority 2008, dated 2010).

The target of experiment [1] is T1, human α7 NNR (Homo sapiens, UniProt P36544).
T1 construct: expressed in transfected cells; host or cells: Xenopus laevis oocytes (cRNA injection)
Briefly: Two-electrode voltage-clamp in Xenopus laevis oocytes, potentiation of ACh-evoked α7 currents. It is filed as cell-based. Conditions: for Voltage-Clamp in Xenopus laevis Oocytes % max (degree of normalized potentiation): 0.1 mM ACh, normalized to reference PAM at 10 μM = 100%, ACh alone = 0%; for EC50: potentiation of 0.1 mM ACh-evoked α7 currents. As for the experimental part: X. laevis oocytes were prepared for electrophysiological experiments as described in the literature (see for example. Briggs, C. A. el al, Neuropharmacology. 1995. 34: 583-590; Briggs, C. A. et al., Neuropharmacology, 1998, 37: 1095-1102, which are incorporated herein by reference). In brief, three to four lobes from ovaries of female adult X. laevis frogs were removed and defolliculated after treatment with collagenase type 1A (2 mg/mL; Sigma) prepared in low-Ca^2+ Barth's solution (90 mM NaCl, 1.0 mM KCl, 0.66 mM NaNO3, 2.4 mM NaHCO3, 10 mM HEPES, 2.5 mM sodium pyruvate, 0.82 mM MgCl2, and 0.5% (v/v) penicillin-streptomycin solution, pH=7.55, Sigma) for about 1.5 hours to about 2 hours at about 18° C. under constant agitation to obtain isolated oocytes.
The isolated oocytes were injected with about 4 ng to about 6 ng of human α7 NNR cRNA, kept at about 18° C. in a humidified incubator in modified Barth's solution (90 mM NaCl, 1.0 mM KCl, 0.66 mM NaNO3, 2.4 mM NaHCO3, 10 mM HEPES, 2.5 mM sodium pyruvate, 0.74 mM CaCl2, 0.82 mM MgCl2, 0.5% (v/v) penicillin-streptomycin solution, pH 7.55) and used about 2 to 7 days after injection. Responses were measured by two-electrode voltage clamp using a Parallel Oocyte Electrophysiology Test Station (Abbott, Abbott Park, Ill.) (see for example, Trumbull, J. D., et al., Receptors Channels, 2003, 9: 19-28, which is incorporated herein by reference). During recordings, the oocytes were bathed in Ba^2+-OR2 solution (90 mM NaCl, 2.5 mM KCl, 2.5 mM BaCl2, 1.0 mM MgCl2, 5.0 mM HEPES, and 0.0005 mM atropine, pH 7.4) to prevent activation of Ca^2+-dependent currents and held at −60 mV at room temperature (about 20° C.). Test compounds were pre-applied alone for […] and subsequently in the presence of 0.1 mM acetylcholine (ACh) as the agonist. The data were expressed as percentage potentiation of the acetylcholine-evoked current normalized to the response of reference PAM (at 10 μM, N′-[(2Z)-3-(2,2-difluoro-1,3-benzodioxol-5-yl)-5-methyl-1,3-thiazol-2(3 H)-ylidene]-N,N-dimethylurea) taken as 100% and the response to submaximum ACh without any PAM as 0%.
In general terms: Two-electrode voltage clamp holds a large cell at a set potential and records current.

In experiment [2] the target is T2, σ1 receptors (Homo sapiens, UniProt Q99720).
T2 construct: The origin of the (σ1 and σ2 receptors were Jurkat cells and rat cerebral cortex, respectively); endogenous in cells; host or cells: Jurkat cells
T2 sequence (Q99720 whole entry): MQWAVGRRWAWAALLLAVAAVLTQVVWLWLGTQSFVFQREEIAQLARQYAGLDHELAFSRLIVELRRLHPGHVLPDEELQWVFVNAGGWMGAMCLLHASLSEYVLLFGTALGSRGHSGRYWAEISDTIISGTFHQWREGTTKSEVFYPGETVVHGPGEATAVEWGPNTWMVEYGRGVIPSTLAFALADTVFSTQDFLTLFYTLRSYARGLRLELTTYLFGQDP
As to the kind of experiment: Sigma receptor binding assay, σ1 ([3H](+)pentazocine displacement, Jurkat cells). Conditions: test compound 10 μM. The protocol: (§1) Sigma receptors are binding sites that interact with several psychoactive agents. Inhibition of specific binding of known ligands to sigma receptors (σ1 and σ2) was used to determine the selectivity of test compounds. The assays were performed as described previously in the literature (non-selective σ: Shirayama, Y., et al. Eur. J. Pharmacol. (1993), 237: 117-126. σ1: Ganapathy, M. E., et al. J. Pharmacol. Exp. Ther. (1999) 289: 251-260. σ2: Bowen, M. D., et al. Mol. Neuropharmacol. (1993) 3: 117-126.). The origin of the non-selective a receptors was rat cerebral cortex. The origin of the (σ1 and σ2 receptors were Jurkat cells and rat cerebral cortex, respectively.
(§2) Affinity for the receptors was determined by competitive displacement of specific ligands (8 nM of [^3H] 1,3-di(2-tolyl)guanidine for non-selective σ, 8 nM of [^3H](+)pentazocine for σ1 and 5 nM of [^3H]1,3-di(2-tolyl)guanidine for σ2) by test compounds. Nonspecific binding was determined by addition of an excess of an unlabelled binder (10 μM haloperidol).
(§3) The results are expressed as a percent inhibition of control specific binding (100−((measured specific binding/control specific binding)×100)) obtained in the presence of test compound (10 μM) as shown in Table 1. In addition, Table 1 includes data for the selected compounds from the voltage-clamp in Xenopus laevis oocytes assay.

For experiment [3], the target named is T3, σ2 receptors (Rattus norvegicus, UniProt Q5U3Y7).
T3 construct: The origin of the (σ1 and σ2 receptors were Jurkat cells and rat cerebral cortex, respectively); from tissue; host or cells: rat cerebral cortex
T3 sequence (Q5U3Y7 1-176): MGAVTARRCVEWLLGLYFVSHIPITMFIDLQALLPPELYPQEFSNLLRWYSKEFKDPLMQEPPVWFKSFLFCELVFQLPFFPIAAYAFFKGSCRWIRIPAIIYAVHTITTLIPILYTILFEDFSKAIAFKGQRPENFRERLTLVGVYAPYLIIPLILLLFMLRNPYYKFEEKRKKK
As to the kind of experiment: Sigma receptor binding assay, σ2 ([3H]1,3-di(2-tolyl)guanidine displacement). The settings on record: test compound 10 μM; rat cerebral cortex. As for the experimental part:
as §1, §2, §3

In experiment [4] the test system is non-selective σ receptors. Briefly: Sigma receptor binding assay, non-selective σ ([3H]1,3-di(2-tolyl)guanidine displacement). Conditions: test compound 10 μM; rat cerebral cortex. As for the experimental part: as §1, §2, §3
Experiment [5] has as its system formalin-induced nociceptive behavior. Briefly: Formalin-induced persistent nociceptive behavior assay. It is filed as in vivo. Conditions: mice; 10 mg/kg subcutaneously 10 minutes prior to formalin; phase 2, 20-45 minutes post formalin. The protocol: Nociception was assessed using the formalin test. The mice were placed in open plexiglass observation chambers for 30 minutes to allow them to acclimate to their surroundings: then they were removed for formalin administration. Mice were gently restrained while the dorsum of the hind paw was injected with 20 μL of 2.5% formalin into the plantar surface of the right hind paw with a 30-gauge needle. The animals were returned to the chambers and nociceptive behavior was observed immediately after formalin injection. Mirrors were placed in each chamber to enable unhindered observation. Nociceptive behavior was quantified as the time licking the injected paw for continuous 5 minutes (phase 1) and 20-45 minutes (phase 2), following formalin injection. Formalin-induced flinching/licking behavior was biphasic. The initial acute phase (phase 1.0-5 minutes) was followed by a relatively short quiescent period, which was then followed by a prolonged tonic response (phase 2, 20-45 minutes).

The test system of experiment [6] is sensory gating T:C ratio. As to the kind of experiment: Sensory gating deficit in DBA/2 mice (N40 gating) assay. It is filed as in vivo. Conditions: dose 0.01 μmol/kg. An excerpt:
Sensory gating is a basic central nervous system function that facilitates attending to important stimuli, and ignoring irrelevant background noise. A practical example of sensory gating is the ability to follow a conversation at a loud party. An experimental measure of sensory gating is the suppression of brainwave (evoked potential) responding to repetitive auditory stimuli. Schizophrenic patients can not suppress responding to repetitive stimuli, and are therefore considered to have sensory gating deficiencies.
DBA/2 mice (20-25 g, 8-10 week, Harlan) were used for gating experiments and handled in accordance with approved Association for Assessment and Accreditation of Laboratory Animal Care procedures. Mice were given food and water ad libitum and maintained on a 12-hour light/dark cycle (lights on at 0600 hours).
The surgical techniques employed were similar to those previously described (Connolly P M, et al. (2003) Brain Res 992(1):85-95). […]
To obtain EEG and evoked potentials (EPs), unanesthetized mice were recorded in acoustically isolated chambers (Med Associates). EEG biosignals were recorded from freely moving mice using flexible cable tethers and electrical swivels (Plastics One) and amplified with differential AC amplifiers (Grass Instrument Division, Astro-Med, West Warwick, R.I. USA). […]

Experiment [7] has as its target α7 NNRs (Homo sapiens, UniProt P36544). Conditions: IMR-32 cells.
Method: Although cell types such as IMR-32 neuroblastoma and neurons are known to contain several nicotinic receptor subunits, α7 selective agonists in the present assay selectively stimulate calcium responses only in the presence of PAMs. Any suitable selective α7 agonist can be used.
IMR-32 neuroblastoma cells (ATCC) were grown to confluency in 162 cm^2 tissue culture flasks in minimum essential media supplemented with 10% fetal bovine serum and 1 mM sodium pyruvate, 0.1 mM non-essential amino acids and 1% antibiotic-antimycotic. […]
Calcium flux was measured using a calcium-3 assay kit (Molecular Devices, Sunnyvale, Calif.) or Fluo-4 (Invitrogen, Carlsbad, Calif.). […] Fluorescence measurements were read simultaneously from all the wells by a Fluorometric Imaging Plate Reader (FLIPR) at an excitation wavelength of 480 nm and an emission wavelength of 520 nm. Baseline fluorescence was measured for the first 10 seconds at which 50 μL of 3× concentrations of modulator/test compounds were added to the cell plate and incubated for three to five minutes. The fluorescence intensity was captured every second for the first 1 minute followed by every 2-5 seconds for an additional two to four minutes. This procedure was followed by 50 μL of 4× concentration of agonist and readings were taken for a period of three to five minutes as described above. […]

T1 sequence (P36544 23-502): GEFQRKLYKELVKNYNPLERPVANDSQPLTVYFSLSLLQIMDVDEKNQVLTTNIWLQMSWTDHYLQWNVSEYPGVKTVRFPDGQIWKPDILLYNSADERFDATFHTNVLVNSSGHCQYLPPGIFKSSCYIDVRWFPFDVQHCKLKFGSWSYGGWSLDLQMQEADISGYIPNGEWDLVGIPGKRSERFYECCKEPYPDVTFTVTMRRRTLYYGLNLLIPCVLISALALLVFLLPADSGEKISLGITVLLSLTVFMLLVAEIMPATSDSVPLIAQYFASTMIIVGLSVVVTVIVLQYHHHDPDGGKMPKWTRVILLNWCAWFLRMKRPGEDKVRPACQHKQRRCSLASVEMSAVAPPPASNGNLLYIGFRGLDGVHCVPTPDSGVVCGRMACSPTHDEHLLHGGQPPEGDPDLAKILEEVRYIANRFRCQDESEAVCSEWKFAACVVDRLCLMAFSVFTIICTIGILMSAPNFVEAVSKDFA
Sequence of α7 NNRs (P36544 23-502): as above

Take `CN(C)c1ccc(CNC(=O)c2ccc(SC(F)(F)F)cc2)cc1` [Example 17, N-[4-(dimethylamino)benzyl]-4-[(trifluoromethyl)thio]benzamide]: in experiment [1], the “Voltage-Clamp in Xenopus laevis Oocytes % max (degree of normalized potentiation)” value turned out to be 94% and the EC50 was 180 nM. For the same compound, the inhibition at 10 µM in experiment [2] was determined as 8%. Also, in experiment [3], the inhibition at 10 µM is -1%.
In the case of `CNc1ccc(CNC(=O)c2ccc(SC(F)(F)F)cc2)cc1` [Example 20, N-[4-(methylamino)benzyl]-4-[(trifluoromethyl)thio]benzamide], in experiment [1], the “Voltage-Clamp in Xenopus laevis Oocytes % max (degree of normalized potentiation)” value was determined as 99% and the EC50 is 97 nM. In addition, in experiment [4], the “% Inhibition of Binding at 10 μM σ” value was 39%. In addition, in experiment [5], the “reduction in licking duration (nociceptive behavior), phase 2” value was 68%. In experiment [6], the “reduction of T:C (test:conditioned) ratios compared to vehicle” value is 23.7±8.9%.
`CNc1ccc(CNC(=O)c2ccc(SC(F)F)cc2)cc1` [Example 22, 4-[(difluoromethyl)thio]-N-[4-(methylamino)benzyl]benzamide]: in experiment [1], the “Voltage-Clamp in Xenopus laevis Oocytes % max (degree of normalized potentiation)” value was found to be 115% and the EC50 stood at 1200 nM. Besides, the inhibition at 10 µM in experiment [2] is 21%. Further, the inhibition at 10 µM in experiment [3] is -4%.
Regarding `CCN1C[C@]2(COC(=O)c3ccccc3N3C(=O)C[C@H](C)C3=O)CC[C@H](OC)[C@@]34[C@@H]5C[C@H]6[C@H](OC)[C@@H]5[C@](O)(C[C@@H]6OC)[C@@](O)([C@@H](OC)[C@H]23)[C@@H]14` [methyllycaconitine], the “calcium response to agonist in the presence of an allosteric modulator” value in experiment [7] was “abolished the response”.
For the compound `Nc1ccc(CNC(=O)c2ccc(SC(F)(F)F)cc2)cc1` [Example 19, N-(4-aminobenzyl)-4-[(trifluoromethyl)thio]benzamide], in experiment [1], the “Voltage-Clamp in Xenopus laevis Oocytes % max (degree of normalized potentiation)” value amounted to 120% and the EC50 worked out at 5400 nM. For the same compound, the “% Inhibition of Binding at 10 μM σ” value in experiment [4] is on record as 6%.
`O=C(Cc1ccc(NCC2CC2)cc1)Nc1ccc(SC(F)F)cc1` [Example 43, 2-{4-[(cyclopropylmethyl)amino]phenyl}-N-{4-[(difluoromethyl)thio]phenyl}acetamide]: the “Voltage-Clamp in Xenopus laevis Oocytes % max (degree of normalized potentiation)” value in experiment [1] came out at 2%. Besides, the EC50 in experiment [1] is more than 10000 nM. The figures for the inhibition at 10 µM in experiment [2] and in experiment [3] were 84% and 34%, respectively.
`O=C(NCc1cccc(-n2cccn2)c1)c1ccc(SC(F)(F)F)cc1` [Example 12, N-[3-(1H-pyrazol-1-yl)benzyl]-4-[(trifluoromethyl)thio]benzamide]: in experiment [1], the “Voltage-Clamp in Xenopus laevis Oocytes % max (degree of normalized potentiation)” value came to 61% and the EC50 turned out to be 3700 nM.

One may read the EC50 as the midpoint of the concentration-response curve. As usually defined, the inhibition is the drop in the measured response relative to a control, in per cent.
